According to paper PMC10728895, “Stapled Phd Peptides Inhibit Doc Toxin Induced Growth Arrest in Salmonella” (ACS Chemical Biology, 2023):
Positions of bridges follow the written chain, without caps; N, C: chain ends. Non-standard residues stand in square brackets, D forms with d. Residues, ends and D or L forms follow the SMILES beside them. S5 = C=CCCC[C@](C)(N)C(=O)O; Nle = CCCC[C@H](N)C(=O)O

Experiments:
[1] = tested on: DocSTm (phosphorylation of EF-TuSTm); assay: Dot blot EF-Tu phosphorylation assay; type: biochemical, Salmonella Typhimurium; conditions: DocSTm 1 μM, EF-TuSTm 3 μM, peptide 10 μM to 5 nM (3-fold dilutions), 16 h RT, dot blot anti-phosphothreonine; compared at three times the DocSTm concentration; two independent experiments
Description: Samples were prepared in assay buffer [50 mM HEPES (pH 7.5), 25 mM (NH4)2SO4, 2 mM TCEP, 2 mM MgCl2, and 1 mM ATP] with a final concentration of recombinant Doc at 1 μM, recombinant EF-Tu at 3 μM, and varying concentrations of synthetic Phd peptides (final concentrations: 10 μM to 5 nM). EF-Tu (3 μM) in assay buffer was used as a negative control (no Doc and Phd peptide), while EF-Tu (3 μM) with Doc (1 μM) in assay buffer was used as a positive control (no Doc inhibitor). The final sample volume was 10 μL. Samples were incubated for 16 h at RT and subsequently spotted on a nitrocellulose membrane. Phosphorylated EF-Tu was detected by immunodecoration using a rabbit monoclonal antiphosphothreonine antibody (Abcam, ab218195) at 1:2000 dilution (1 h at 4 °C), followed by incubation with a goat antirabbit IgG (H + L) HRP conjugate antibody (Advansta) at 1:10,000 dilution (1 h at RT). Chemiluminescence was developed using the HRP Luminata Kit (Merck, WBLUR0100) and captured with an ImageQuant LAS4000 Western blot imaging system (GE HealthCare). Each peptide was tested in two independent experiments.

DocSTm toxin = conditions: DocSTm 5 μM, peptide 50 μM; for Average Tm of DocSTm in the presence of peptide: pH 8.0, average ± SD, replicates 3-48 (Table S3)
Description: The thermal shift assay was performed using a Mx3005P qPCR System (Agilent) collecting fluorescence data with a temperature ramp of 25 to 95 °C. Samples were prepared in a buffer containing 20 mM K2HPO4 and 50 mM (NH4)2SO4 at pH 8.0, with a final concentration of recombinant Doc protein at 5 μM and Phd peptides at 50 μM. SYPRO Orange dye (Sigma-Aldrich, 5000X stock in DMSO) was used to monitor protein denaturation in a final concentration of 3×. The final sample volume was 20 μL. Each condition was prepared in triplicate in each independent experiment. The melting curves were plotted using GraphPad Prism 9 (GraphPad Software, USA), and the melting temperatures were obtained by fitting the sigmoidal section of the curves to a Boltzmann sigmoid function. For the calculation of thermal shifts ΔTm, the average melting temperature of free DocSTm toxin as determined in the respective peptide measurement cycles was subtracted from the average melting temperature of DocSTm in the presence of the peptide (Table S3).

| SMILES | Inhibition of EF-TuSTm phosphorylation by DocSTm (concentration needed for full inhibition) [1] | Average Tm of DocSTm in the presence of peptide (DocSTm toxin) [°C] | ΔTm (thermal shift) of DocSTm in the presence of peptide (DocSTm toxin; SYPRO Orange 3×, 20 mM K2HPO4, 50 mM (NH4)2SO4, pH 8.0, average Tm with peptide minus average Tm of free DocSTm, mean ± SD) |
| --- | --- | --- | --- |
| CCCC[C@H](NC(=O)[C@H](Cc1c[nH]c2ccccc12)NC(C)=O)C(=O)N[C@@H](CCCNC(=N)N)C(=O)N[C@@H](CC(=O)O)C(=O)N[C@@H](CCC(=O)O)C(=O)N[C@@H](Cc1ccccc1)C(=O)N[C@@H](C)C(=O)N[C@@H](C)C(=O)N[C@H](C(=O)N[C@@H](CCCC)C(=O)N[C@@H](CCCNC(=N)N)C(=O)N[C@H](C(=O)N[C@@H](Cc1c[nH]cn1)C(=O)NCC(=O)N[C@@H](CC(N)=O)C(=O)N[C@@H](CCC(=O)O)C(=O)N[C@@H](CC(C)C)C(=O)N[C@@H](CCCNC(=N)N)C(=O)N[C@@H](CCC(=O)O)C(=O)N[C@@H](CC(C)C)C(=O)N[C@@H](C)C(=O)N[C@@H](CC(=O)O)C(=O)N[C@@H](CCCCN)C(=O)O)C(C)C)[C@@H](C)CC [Peptide 16] (Ac-W[Nle]RDEFAAI[Nle]RVHGNELRELADK-OH) | fully inhibited | 65.0 ± 0.4 | – |
| CCCC[C@H](NC(=O)[C@H](Cc1c[nH]c2ccccc12)NC(C)=O)C(=O)N[C@@H](CCCNC(=N)N)C(=O)N[C@@]1(C)CCCC=CCCC[C@@](C)(C(=O)N[C@H](C(=O)N[C@@H](CCCC)C(=O)N[C@@H](CCCNC(=N)N)C(=O)N[C@H](C(=O)N[C@@H](Cc2c[nH]cn2)C(=O)NCC(=O)N[C@@H](CC(N)=O)C(=O)N[C@@H](CCC(=O)O)C(=O)N[C@@H](CC(C)C)C(=O)N[C@@H](CCCNC(=N)N)C(=O)N[C@@H](CCC(=O)O)C(=O)N[C@@H](CC(C)C)C(=O)N[C@@H](C)C(=O)N[C@@H](CC(=O)O)C(=O)N[C@@H](CCCCN)C(=O)O)C(C)C)[C@@H](C)CC)NC(=O)[C@H](C)NC(=O)[C@H](Cc2ccccc2)NC(=O)[C@H](CCC(=O)O)NC1=O [Peptide 17] (Ac-W[Nle]R[S5]EFA[S5]I[Nle]RVHGNELRELADK-OH; staple 4-8) | required a higher concentration to achieve full inhibition | 61.3 ± 0.3 | – |
| CCCC[C@H](NC(=O)[C@H](Cc1c[nH]c2ccccc12)NC(C)=O)C(=O)N[C@@H](CCCNC(=N)N)C(=O)N[C@@H](CC(=O)O)C(=O)N[C@@H](CCC(=O)O)C(=O)N[C@@H](Cc1ccccc1)C(=O)N[C@@H](C)C(=O)N[C@@H](C)C(=O)N[C@H](C(=O)N[C@@H](CCCC)C(=O)N[C@@H](CCCNC(=N)N)C(=O)N[C@H](C(=O)N[C@@H](Cc1c[nH]cn1)C(=O)NCC(=O)N[C@@]1(C)CCCC=CCCC[C@@](C)(C(=O)N[C@@H](CC(C)C)C(=O)N[C@@H](C)C(=O)N[C@@H](CC(=O)O)C(=O)N[C@@H](CCCCN)C(=O)O)NC(=O)[C@H](CCCNC(=N)N)NC(=O)[C@H](CC(C)C)NC(=O)[C@H](CCC(=O)O)NC1=O)C(C)C)[C@@H](C)CC [Peptide 18] (Ac-W[Nle]RDEFAAI[Nle]RVHG[S5]ELR[S5]LADK-OH; staple 15-19) | required a higher concentration to achieve full inhibition | 66.3 ± 0.2 | – |
| CCCC[C@H](NC(=O)[C@H](Cc1c[nH]c2ccccc12)NC(C)=O)C(=O)N[C@@H](CCCNC(=N)N)C(=O)N[C@@H](CC(=O)O)C(=O)N[C@@H](CCC(=O)O)C(=O)N[C@@H](Cc1ccccc1)C(=O)N[C@@H](CCCNC(=N)N)C(=O)N[C@@H](C)C(=O)N[C@H](C(=O)N[C@@H](CCCC)C(=O)N[C@@H](CCCNC(=N)N)C(=O)N[C@H](C(=O)N[C@@H](Cc1c[nH]cn1)C(=O)NCC(=O)N[C@@H](CC(N)=O)C(=O)N[C@@H](CCC(=O)O)C(=O)N[C@@H](CC(C)C)C(=O)N[C@@H](CCCNC(=N)N)C(=O)N[C@@H](CCC(=O)O)C(=O)N[C@@H](CC(C)C)C(=O)N[C@@H](C)C(=O)N[C@@H](CC(=O)O)C(=O)N[C@@H](CCCCN)C(=O)O)C(C)C)[C@@H](C)CC [Peptide 19] (Ac-W[Nle]RDEFRAI[Nle]RVHGNELRELADK-OH) | fully inhibited | 62.5 ± 0.9 | – |
| CCCC[C@H](NC(=O)[C@H](Cc1c[nH]c2ccccc12)NC(C)=O)C(=O)N[C@@H](CCCNC(=N)N)C(=O)N[C@@]1(C)CCCC=CCCC[C@@](C)(C(=O)N[C@H](C(=O)N[C@@H](CCCC)C(=O)N[C@@H](CCCNC(=N)N)C(=O)N[C@H](C(=O)N[C@@H](Cc2c[nH]cn2)C(=O)NCC(=O)N[C@@H](CC(N)=O)C(=O)N[C@@H](CCC(=O)O)C(=O)N[C@@H](CC(C)C)C(=O)N[C@@H](CCCNC(=N)N)C(=O)N[C@@H](CCC(=O)O)C(=O)N[C@@H](CC(C)C)C(=O)N[C@@H](C)C(=O)N[C@@H](CC(=O)O)C(=O)N[C@@H](CCCCN)C(=O)O)C(C)C)[C@@H](C)CC)NC(=O)[C@H](CCCNC(=N)N)NC(=O)[C@H](Cc2ccccc2)NC(=O)[C@H](CCC(=O)O)NC1=O [Peptide 20] (Ac-W[Nle]R[S5]EFR[S5]I[Nle]RVHGNELRELADK-OH; staple 4-8) | required a higher concentration to achieve full inhibition | 60.4 ± 0.4 | – |
| CCCC[C@H](NC(=O)[C@H](Cc1c[nH]c2ccccc12)NC(C)=O)C(=O)N[C@@H](CCCNC(=N)N)C(=O)N[C@@H](CC(=O)O)C(=O)N[C@@H](CCC(=O)O)C(=O)N[C@@H](Cc1ccccc1)C(=O)N[C@@H](CCCNC(=N)N)C(=O)N[C@@H](C)C(=O)N[C@H](C(=O)N[C@@H](CCCC)C(=O)N[C@@H](CCCNC(=N)N)C(=O)N[C@H](C(=O)N[C@@H](Cc1c[nH]cn1)C(=O)NCC(=O)N[C@@]1(C)CCCC=CCCC[C@@](C)(C(=O)N[C@@H](CC(C)C)C(=O)N[C@@H](C)C(=O)N[C@@H](CC(=O)O)C(=O)N[C@@H](CCCCN)C(=O)O)NC(=O)[C@H](CCCNC(=N)N)NC(=O)[C@H](CC(C)C)NC(=O)[C@H](CCC(=O)O)NC1=O)C(C)C)[C@@H](C)CC [Peptide 21] (Ac-W[Nle]RDEFRAI[Nle]RVHG[S5]ELR[S5]LADK-OH; staple 15-19) | required a higher concentration to achieve full inhibition | 61.1 ± 2.5 | – |
| CCCC[C@H](NC(=O)[C@H](Cc1c[nH]c2ccccc12)NC(C)=O)C(=O)N[C@@H](CC(N)=O)C(=O)N[C@@]1(C)CCCC=CCCC[C@@](C)(C(=O)N[C@H](C(=O)N[C@@H](CCCC)C(=O)N[C@@H](C)C(=O)N[C@H](C(=O)N[C@@H](Cc2c[nH]cn2)C(=O)NCC(=O)N[C@@H](CCCNC(=N)N)C(=O)N[C@@H](CCC(N)=O)C(=O)N[C@@H](CC(C)C)C(=O)N[C@@H](CCCNC(=N)N)C(=O)N[C@@H](CCCNC(=N)N)C(=O)N[C@@H](CC(C)C)C(=O)N[C@@H](C)C(=O)N[C@@H](CCCNC(=N)N)C(=O)N[C@@H](CCCCN)C(=O)O)C(C)C)[C@@H](C)CC)NC(=O)[C@H](C)NC(=O)[C@H](Cc2ccccc2)NC(=O)[C@H](CCC(=O)O)NC1=O [Peptide 35] (Ac-W[Nle]N[S5]EFA[S5]I[Nle]AVHGRQLRRLARK-OH; staple 4-8) | – | 59.9 ± 0.4 | – |
| CCCC[C@H](NC(=O)[C@H](Cc1c[nH]c2ccccc12)NC(C)=O)C(=O)N[C@@H](CC(N)=O)C(=O)N[C@@H](CC(N)=O)C(=O)N[C@@H](CCC(=O)O)C(=O)N[C@@H](Cc1ccccc1)C(=O)N[C@@H](C)C(=O)N[C@@]1(C)CCCC=CCCC[C@@](C)(C(=O)N[C@@H](Cc2c[nH]cn2)C(=O)NCC(=O)N[C@@H](CCCNC(=N)N)C(=O)N[C@@H](CCC(N)=O)C(=O)N[C@@H](CC(C)C)C(=O)N[C@@H](CCCNC(=N)N)C(=O)N[C@@H](CCCNC(=N)N)C(=O)N[C@@H](CC(C)C)C(=O)N[C@@H](C)C(=O)N[C@@H](CCCNC(=N)N)C(=O)N[C@@H](CCCCN)C(=O)O)NC(=O)[C@H](C)NC(=O)[C@H](CCCC)NC(=O)[C@H]([C@@H](C)CC)NC1=O [Peptide 37] (Ac-W[Nle]NNEFA[S5]I[Nle]A[S5]HGRQLRRLARK-OH; staple 8-12) | – | 55.3 ± 1.5 | reduced stabilization |
